From patent publication US5583000A, “Protease-binding compounds and methods of use” (priority 1993, dated 1996) come the findings set out here.

Converted amounts (≈) assume the structure as drawn. Like-named read-outs stand apart in the source and are kept apart here.

Broadly, the IC50 is the point on the concentration scale where inhibition reaches its midpoint. A word on the solubility: it is the concentration that dissolves in the medium under given conditions.

One data set addresses HIV-1 protease (Human immunodeficiency virus type 1 group M subtype B, UniProt P03369). As to the kind of experiment: biochemical.
For the next data set, the target named is T1, HIV-2 protease (Human immunodeficiency virus type 2 subtype A, UniProt P04584).
T1 construct: the coding region of the 99-amino acid protease; made in house; host or cells: Saccharomyces cerevisiae strain AB110, plasmid pHIV2PR115
T1 sequence (P04584 514-612 limits assumed): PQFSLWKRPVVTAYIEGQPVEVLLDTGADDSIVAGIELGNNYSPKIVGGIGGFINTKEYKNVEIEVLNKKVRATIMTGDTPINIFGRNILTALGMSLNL
As to the kind of experiment: biochemical. The conditions noted are these: 1M NaCl. As for the experimental part: The decapeptide was synthesized by conventional solid-state methods. Reactions were carried out and fractionated by HPLC. Conversion of the decapeptide to the two pentapeptides was quantitated by integration of the peak areas and comparison to product standard curves.
Enzymatic Inhibition. […] Each data point was done in triplicate and initial enzyme rates were fit to the Michaelis-Menten equation using a nonlinear regression program ("Enzfitter" from Biosoft).

The mark [1] stands for this setting: HIV-1 Protease IC50 (μM) 1M NaCl.
Where [2] appears, read: read-out: HIV-1 Protease IC50 (μM) 1M NaCl.
The mark [3] stands for this setting: HIV-1 Protease IC50 (μM) 1M NaCl, 1M NaCl.

Regarding `C[C@@H]1SC(CCCN2CCC(O)(c3ccc(Cl)cc3)CC2)(c2ccc(F)cc2)S[C@H]1C` (relative stereo) [UCSF12, (trans-2,3-butanethioacetal)-4-[4-(p-chlorophenyl)-4-hydroxypiperidinyl]-4'-fluorobutyro-phenone], the “HIV-1 Protease Therapeutic Index (LD50 /IC50)” value on HIV-1 protease stood at 0.5. Moreover, the figures for the IC50 at HIV-1 protease (setting [1]) and at HIV-2 protease were 350 µM and 50 µM, respectively. For the same compound, the CC50 at 6 h in the data set “in vitro” was 35 µM. Besides, the solubility in the data set “physchem” is < 250 µM.
As for `C[C@@H]1SC(CCCN2CCC(O)(c3ccc(Cl)cc3)CC2)(c2ccc(F)cc2)S[C@@H]1C` (relative stereo) [UCSF64], the figures for the IC50 against HIV-1 protease (setting [1]) and against HIV-2 protease were 16 µM and 29 µM, respectively. The CC50 at 6 h in the data set “in vitro” stood at 25 µM. The solubility in the data set “physchem” is < 50 µM.
Turning to `O=C(CCC[N+]1([O-])CCC(O)(c2ccc(Cl)cc2)CC1)c1ccc(F)cc1` (centres unmarked) [UCSF3, 4-[4-(p-chlorophenyl)-4-hydroxy-N-oxopiperidinyl]-4'-fluorobutyrophenone], at HIV-1 protease, the “HIV-1 Protease Therapeutic Index (LD50 /IC50)” value is > 2.5. Moreover, the IC50 on HIV-1 protease (setting [1]) turned out to be 100 µM; at HIV-2 protease, 135 µM. Further, in “in vitro”, the CC50 at 6 h is > 500 µM. Also, in “physchem”, the solubility is < 250 µM.
For `ON=C(CCCN1CCC(O)(c2ccc(Cl)cc2)CC1)c1ccc(F)cc1` [UCSF4, 4-[4-(p-chlorophenyl)-4-hydroxypiperidinyl]-4'-fluorobutyrophenone oxime], on HIV-1 protease, the “HIV-1 Protease Therapeutic Index (LD50 /IC50)” value is reported as 0.7. The values for the IC50 against HIV-1 protease (setting [1]) and against HIV-2 protease were 100 µM and 116 µM, respectively. Moreover, in “physchem”, the solubility is > 250 µM.
With `C[N+]1(CCCC(=O)c2ccc(F)cc2)CCC(O)(c2ccc(Cl)cc2)CC1` (centres unmarked) [UCSF5, 4-[4-(p-chlorophenyl)-4-hydroxy-N-methylpiperidinyl]-4'-fluorobutyrophenone], the “HIV-1 Protease Therapeutic Index (LD50 /IC50)” value at HIV-1 protease is on record as > 6.3. Also, the IC50 was 79 µM against HIV-1 protease (setting [1]) and > 1000 µM on HIV-2 protease. Besides, the CC50 at 6 h in “in vitro” was > 500 µM. For the same compound, the solubility in “physchem” is > 250 µM.
Turning to `CC(=O)OC1(c2ccc(Cl)cc2)CCN(CCCC(=O)c2ccc(F)cc2)CC1` [UCSF6, 4-[4-(p-chlorophenyl)-4-acetoxypiperidinyl]-4'-fluorobutyrophenone], the concentration for half-maximal inhibition (IC50) came to 725 µM against HIV-1 protease (1M NaCl) and 533 µM on HIV-2 protease. In addition, at HIV-1 protease (LD50/IC50), the “HIV-1 Protease Therapeutic Index (LD50 /IC50)” value is recorded as 0.3. Besides, the CC50 at 6 h in the data set “in vitro” was determined as 250 µM. Besides, in “physchem”, the solubility was > 250 µM.
For the compound `NN=C(CCCN1CCC(O)(c2ccc(Cl)cc2)CC1)c1ccc(F)cc1` [UCSF7, 4-[4-(p-chlorophenyl)-4-hydroxypiperidinyl]-4'-fluorobutyrophenone hydrazone], the “HIV-1 Protease Therapeutic Index (LD50 /IC50)” value at HIV-1 protease was 0.9. The values for the IC50 at HIV-1 protease (setting [1]) and at HIV-2 protease were 100 µM and 200 µM, respectively. Besides, the solubility in “physchem” was > 250 µM.
Consider `OC1(c2ccc(Cl)cc2)CCN(CCCC2(c3ccc(F)cc3)SCCCS2)CC1` [UCSF10, (1,3-propanethioacetal)-4-[4-(p-chlorophenyl)-4-hydroxypiperidinyl]-4'-fluorobutyrophenone], for which the “HIV-1 Protease Therapeutic Index (LD50 /IC50)” value on HIV-1 protease is on record as 2. The IC50 against HIV-1 protease (setting [1]) came to 15 µM; against HIV-2 protease it was 88 µM. This compound also had a CC50 at 6 h in the data set “in vitro” of 30 µM. Besides, in “physchem”, the solubility was < 100 µM.
With `O=C(CCCN1CC=C(c2ccc(Cl)cc2)CC1)c1ccc(F)cc1` [UCSF11, 4-[4-(p-chlorophenyl)]-N-[4-(4'-fluorobutyrophenone)]-1,2,5,6-tetrahydropyridine], the values for the IC50 at HIV-1 protease (1M NaCl) and against HIV-2 protease were 750 µM and 310 µM, respectively. For the same compound, the “HIV-1 Protease Therapeutic Index (LD50 /IC50)” value on HIV-1 protease (LD50/IC50) stood at 0.3. The same compound displayed a CC50 at 6 h in “in vitro” of 250 µM. In addition, the solubility in the data set “physchem” is < 250 µM.
On to `OCCNN=C(CCCN1CCC(O)(c2ccc(Cl)cc2)CC1)c1ccc(F)cc1` [UCSF14], for which the “HIV-1 Protease Therapeutic Index (LD50 /IC50)” value on HIV-1 protease is on record as 10. Also, the IC50 was 50 µM at HIV-1 protease (setting [1]) and 90 µM against HIV-2 protease. Moreover, the CC50 at 6 h in the data set “in vitro” came out at 500 µM. In “physchem”, the solubility stood at 500 µM (≈ 217 µg/mL).
As for `O=C(CCC[N+]1(CCc2ccccc2)CCC(O)(c2ccc(Cl)cc2)CC1)c1ccc(F)cc1` (centres unmarked) [UCSF15, 4-[4-(p-chlorophenyl)-4-hydroxy-[N-(2-phenyl)ethyl]piperidinyl]-4'-fluorobutyrophenone], the “HIV-1 Protease Therapeutic Index (LD50 /IC50)” value on HIV-1 protease turned out to be 0.3. The IC50 at HIV-1 protease (setting [1]) was determined as 150 µM; on HIV-2 protease it was 250 µM. Further, in “physchem”, the solubility was > 250 µM.
With `OC1(c2ccc(Cl)cc2)CCN(CCCC2(c3ccc(F)cc3)OCCO2)CC1` [UCSF16, (1,2-ethyloxoacetal)-4-[4-(p-chlorophenyl)-4-hydroxypiperidinyl]-4'-fluorobutyrophenone], the “HIV-1 Protease Therapeutic Index (LD50 /IC50)” value at HIV-1 protease came to 2. The IC50 is 75 µM on HIV-1 protease (setting [2]) and 238 µM on HIV-2 protease (read-out: HIV-2 Protease IC50 (μM) 1M NaCl). The compound also registered a CC50 at 6 h in the data set “in vitro” of 150 µM. Moreover, the solubility in “physchem” is > 250 µM.
`O=C(CCC[n+]1ccc(-c2ccc(Cl)cc2)cc1)c1ccc(F)cc1` [UCSF17, 4-[4-(p-chlorophenyl)l-N-[4-(4'-fluorobutyrophenone)]pyridinium bromide] showed an IC50 against HIV-1 protease (1M NaCl) of 1200 µM. Also, on HIV-1 protease (LD50/IC50), the “HIV-1 Protease Therapeutic Index (LD50 /IC50)” value was 0.4. The compound also returned a CC50 at 6 h in “in vitro” of 500 µM. In addition, in the data set “physchem”, the solubility was > 250 µM.
For `OC1(c2ccc(Cl)cc2)CCN(CCCC2(c3ccc(F)cc3)SCc3ccccc3CS2)CC1` [UCSF18, (1,2-benzene-dimethanethioacetal)-4-[4-(p-chlorophenyl)-4-hydroxypiperidinyl]-4'-fluorobutyrophenone], the “HIV-1 Protease Therapeutic Index (LD50 /IC50)” value on HIV-1 protease stood at 1.4. Moreover, the IC50 on HIV-1 protease (setting [1]) amounted to 25 µM; on HIV-2 protease it was 10 µM. The compound further registered a CC50 at 6 h in “in vitro” of 35 µM. In addition, the solubility in “physchem” is > 250 µM.
Regarding `O=C(CCCN1CCC(c2ccccc2)CC1)c1ccc(F)cc1` [UCSF19], the figures for the IC50 at HIV-1 protease (setting [3]) and at HIV-2 protease were 250 µM and 323 µM, respectively.
On to `O=C(CCCN1CCC(O)(c2ccc(Cl)cc2)C(O)C1)c1ccc(F)cc1` (centres unmarked) [UCSF20, 4-[4-(p-chlorophenyl)-3,4-dihydroxypiperidinyl)-4'-fluorobutyrophenone], for which the “HIV-1 Protease Therapeutic Index (LD50 /IC50)” value on HIV-1 protease stood at 0.26. The IC50 against HIV-1 protease (setting [1]) came out at 675 µM. Further, the solubility in the data set “physchem” was > 250 µM.
`OC1(c2ccc(Cl)cc2)CCN(CCCC2(c3ccc(F)cc3)SCc3cccc(c3)CS2)CC1` [UCSF21, (1,3-benzenedimethanethioacetal)-4-[4-(p-chlorophenyl)-4-hydroxypiperidinyl]-4'-fluorobutyrophenone]: at HIV-1 protease, the “HIV-1 Protease Therapeutic Index (LD50 /IC50)” value was > 20(10). The IC50 at HIV-1 protease (setting [1]) is 25 µM; on HIV-2 protease, 75 µM. Moreover, the CC50 at 6 h in “in vitro” was > 500 µM. Moreover, the solubility in “physchem” is < 250 µM.
In the case of `OC1(c2ccc(Cl)cc2)CCN(CCCC(O)(c2ccccc2)c2ccc(F)cc2)CC1` (centres unmarked) [UCSF24, 4-[4-(p-chlorophenyl)-4-hydroxypiperidinyl]-1-phenyl-1-(p-fluorophenyl)-butan-1-ol], the “HIV-1 Protease Therapeutic Index (LD50 /IC50)” value on HIV-1 protease is recorded as 0.4. This compound also came in with an IC50 at HIV-1 protease (setting [1]) of 62 µM. Moreover, the CC50 at 6 h in “in vitro” was 25 µM. In addition, the solubility in the data set “physchem” is > 200 µM.
With `OC1(c2ccc(Cl)cc2)CCN(CCCC(O)(Cc2ccccc2)c2ccc(F)cc2)CC1` (centres unmarked) [UCSF25], the “HIV-1 Protease Therapeutic Index (LD50 /IC50)” value on HIV-1 protease worked out at 0.2. Moreover, the IC50 was found to be 87 µM against HIV-1 protease (setting [1]) and 75 µM against HIV-2 protease. Besides, the CC50 at 6 h in the data set “in vitro” is 20 µM.
Turning to `O=C(CCCN1CCC(O)(c2ccccc2)CC1)c1ccc2ccccc2n1` [UCSF27], the “HIV-1 Protease Therapeutic Index (LD50 /IC50)” value at HIV-1 protease is 2(1). For the same compound, the IC50 on HIV-1 protease (setting [2]) came to 198 µM. The CC50 at 6 h in “in vitro” stood at 400 µM. Besides, the solubility in the data set “physchem” is < 200 µM.
On to `OC1(c2ccccc2)CCN(CCCC2(c3ccc(F)cc3)OCCO2)CC1` [UCSF28, (1,2-ethyloxoacetal)-4-(4-phenyl-4-hydroxypiperidinyl)-4'-fluorobutyrophenone], for which the “HIV-1 Protease Therapeutic Index (LD50 /IC50)” value on HIV-1 protease stood at 1.2. This compound also came in with an IC50 at HIV-1 protease (setting [1]) of 410 µM. Also, the CC50 at 6 h in “in vitro” is > 500 µM. In “physchem”, the solubility is > 500 µM.
For `OC1(c2ccccc2)CCN(CCCC(O)(c2ccccc2)c2ccc3ccccc3n2)CC1` (stereo not drawn) [UCSF32, 4-(4-phenyl-4-hydroxypiperidinyl)-1-phenyl-1-[α-(2-azanaphthyl)]-butan-1-ol], the “HIV-1 Protease Therapeutic Index (LD50 /IC50)” value on HIV-1 protease stood at 0.4. Also, the IC50 turned out to be 60 µM at HIV-1 protease (setting [1]) and 80 µM against HIV-2 protease. Further, the CC50 at 6 h in the data set “in vitro” stood at 25 µM.
In the case of `O=C(CCCN1CCC(O)(c2ccc(Cl)cc2)CC1)c1ccncc1` [UCSF35], the “HIV-1 Protease Therapeutic Index (LD50 /IC50)” value on HIV-1 protease is listed as > 0.8. The IC50 on HIV-1 protease (setting [2]) is 650 µM. Further, the CC50 at 6 h in the data set “in vitro” was > 500 µM. In addition, in the data set “physchem”, the solubility was > 500 µM.
Take `O=C(CCCC1(O)CCC(O)(c2ccc(Cl)cc2)CC1)c1ccccc1` (centres unmarked) [UCSF45]: the IC50 against HIV-1 protease (setting [3]) was > 1000 µM.
Take `Cc1ccc(C2(CCC(c3ccccc3)N3CCC(O)(c4ccc(Cl)cc4)CC3)SCCS2)cc1` (centres unmarked) [UCSF48]: on HIV-1 protease, the “inhibition of HIV-1 protease at the lower salt concentrations” value is on record as “Very little inhibition” and the “inhibition of HIV-1 protease compared with other compounds” value is “slightly better inhibitor than USCF42 at 1M NaCl”. This compound came in with an IC50 at HIV-1 protease (setting [1]) of 7 µM. At HIV-2 protease, this compound displayed an IC50 of 10 µM.
As for `OCC1(c2ccccc2)CCN(CCCC2(c3ccc(F)cc3)OCCO2)CC1` [UCSF53], on HIV-1 protease (setting [1]), the IC50 is > 2500 µM. The same compound showed a CC50 at 6 h in the data set “in vitro” of 500 µM. In addition, the solubility in the data set “physchem” is < 50 µM.
